The values that follow come from patent US11919887B2, “Substituted tetrahydrofurans as modulators of sodium channels” (Vertex Pharmaceuticals Incorporated, priority 2019, dated 2024).

The target of this experiment is human Nav 1.8 (Homo sapiens, UniProt Q9Y5Y9). As to the kind of experiment: E-VIPR assay detecting and measuring Nav inhibition (HEK cells expressing truncated human Nav 1.8). In kind it is cell-based. The essentials: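 HEK cells expressing truncated human Nav1.8, transduced with KIR2.1 BacMam, were loaded with CC2-DMPE/DiSBAC6(3) FRET dyes and tested under electrical stimulation (E-VIPR). Compounds were run as 11-point 3-fold dilutions, top 300 nM final, 0.625% DMSO, with or without 25% human serum.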
Sequence of human Nav 1.8 (Q9Y5Y9 whole entry, looked up, the tested form may be a part): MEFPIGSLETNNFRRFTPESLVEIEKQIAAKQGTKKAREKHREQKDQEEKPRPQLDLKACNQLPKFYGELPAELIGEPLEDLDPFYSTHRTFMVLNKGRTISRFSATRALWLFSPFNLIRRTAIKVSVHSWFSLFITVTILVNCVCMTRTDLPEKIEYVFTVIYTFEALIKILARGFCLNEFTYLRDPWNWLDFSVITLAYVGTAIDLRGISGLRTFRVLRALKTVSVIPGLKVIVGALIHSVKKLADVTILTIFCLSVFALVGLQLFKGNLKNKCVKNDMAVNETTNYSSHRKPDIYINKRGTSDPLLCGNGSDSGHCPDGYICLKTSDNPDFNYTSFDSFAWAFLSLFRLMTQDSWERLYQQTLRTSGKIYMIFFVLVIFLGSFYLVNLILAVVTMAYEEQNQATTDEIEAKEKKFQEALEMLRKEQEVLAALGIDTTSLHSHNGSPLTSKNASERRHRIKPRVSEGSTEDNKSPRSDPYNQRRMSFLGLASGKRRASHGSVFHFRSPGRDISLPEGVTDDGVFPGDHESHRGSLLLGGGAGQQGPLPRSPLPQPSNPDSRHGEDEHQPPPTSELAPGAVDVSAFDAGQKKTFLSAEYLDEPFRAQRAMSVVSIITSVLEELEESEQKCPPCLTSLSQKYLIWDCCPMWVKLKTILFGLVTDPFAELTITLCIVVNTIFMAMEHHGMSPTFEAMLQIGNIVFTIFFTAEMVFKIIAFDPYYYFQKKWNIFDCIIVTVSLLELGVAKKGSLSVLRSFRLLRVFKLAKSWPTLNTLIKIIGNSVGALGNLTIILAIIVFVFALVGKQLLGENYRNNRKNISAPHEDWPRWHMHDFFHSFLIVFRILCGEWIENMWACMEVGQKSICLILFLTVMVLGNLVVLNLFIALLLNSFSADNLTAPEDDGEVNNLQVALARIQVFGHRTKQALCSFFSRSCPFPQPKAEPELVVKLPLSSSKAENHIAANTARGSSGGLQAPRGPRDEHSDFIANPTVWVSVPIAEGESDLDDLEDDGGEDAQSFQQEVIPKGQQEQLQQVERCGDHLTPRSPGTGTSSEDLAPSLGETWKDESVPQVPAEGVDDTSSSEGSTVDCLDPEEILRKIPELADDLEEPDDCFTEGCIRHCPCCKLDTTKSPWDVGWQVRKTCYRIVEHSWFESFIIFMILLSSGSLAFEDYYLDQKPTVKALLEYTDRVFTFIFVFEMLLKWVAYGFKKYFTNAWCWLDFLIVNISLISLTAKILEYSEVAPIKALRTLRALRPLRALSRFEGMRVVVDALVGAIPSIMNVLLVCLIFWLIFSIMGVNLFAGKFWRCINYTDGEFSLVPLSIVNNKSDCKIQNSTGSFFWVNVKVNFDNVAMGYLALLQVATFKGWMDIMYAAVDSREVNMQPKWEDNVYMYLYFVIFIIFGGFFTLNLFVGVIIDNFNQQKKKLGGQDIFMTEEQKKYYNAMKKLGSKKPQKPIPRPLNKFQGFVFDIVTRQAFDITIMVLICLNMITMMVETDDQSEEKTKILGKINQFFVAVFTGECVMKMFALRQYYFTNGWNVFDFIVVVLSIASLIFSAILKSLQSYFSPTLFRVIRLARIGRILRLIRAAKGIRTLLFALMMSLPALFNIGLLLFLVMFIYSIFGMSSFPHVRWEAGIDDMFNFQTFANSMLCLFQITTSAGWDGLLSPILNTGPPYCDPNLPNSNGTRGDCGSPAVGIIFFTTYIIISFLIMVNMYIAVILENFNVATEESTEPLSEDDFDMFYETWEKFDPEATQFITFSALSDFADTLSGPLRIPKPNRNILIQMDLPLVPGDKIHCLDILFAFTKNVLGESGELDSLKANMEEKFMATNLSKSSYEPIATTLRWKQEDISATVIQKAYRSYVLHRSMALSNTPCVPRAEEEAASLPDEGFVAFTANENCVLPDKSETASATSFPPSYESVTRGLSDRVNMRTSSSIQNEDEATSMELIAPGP

Where [1] appears, read: in the Presence of Human Serum in the E-VIPR Assay, read-out: IC50.
Setting [2] is: in the Absence of Human Serum in the E-VIPR Assay, read-out: IC50.
Where [3] appears, read: in the Absence of Human Serum in the E-VIPR Assay.

Where two headings read alike, the source gives them in different places.

With `COc1c([C@H]2C[C@@](C)(C(F)(F)F)O[C@@H]2C(=O)Nc2ccnc(C(N)=O)c2)ccc(F)c1Cl` (relative stereo) [Compound 20, rel-(2S,3R,5S)-4-[[3-(3-chloro-4-fluoro-2-methoxy-phenyl)-5-methyl-5-(trifluoromethyl)tetrahydrofuran-2-carbonyl]amino]pyridine-2-carboxamide], under setting [1], the IC50 was greater than 1000 nM.
As for `COc1c([C@H]2[C@H](C(=O)Nc3ccc(F)c(C(N)=O)c3)O[C@@](C)(C(F)(F)F)[C@H]2C)ccc(F)c1F` [Compound 123, (2R,3S,4S,5R)-N-(3-carbamoyl-4-fluoro-phenyl)-3-(3,4-difluoro-2-methoxy-phenyl)-4,5-dimethyl-5-(trifluoromethyl)tetrahydrofuran-2-carboxamide], the concentration for half-maximal inhibition (IC50) under setting [2] is less than 10 nM.
For `C[C@@H]1[C@H](c2ccc(F)c(F)c2OC(F)F)[C@@H](C(=O)Nc2ccnc(C(N)=O)c2)O[C@]1(C)C(F)(F)F` [Compound 10, (2S,3R,4R,5S)-4-[[3-[2-(difluoromethoxy)-3,4-difluoro-phenyl]-4,5-dimethyl-5-(trifluoromethyl)tetrahydrofuran-2-carbonyl]amino]pyridine-2-carboxamide], under setting [1], the IC50 was greater than 1000 nM.
On the same count and under the same terms, with `COc1cc(F)ccc1[C@@H]1[C@@H](C(=O)Nc2ccnc(C(N)=O)c2)O[C@@](C)(C(F)(F)F)[C@H]1C` (single isomer, unassigned) [Compound 37] the figure was 100 to 1000 nM; with `COc1c([C@@H]2[C@H](C)[C@H](C(C)C)O[C@H]2C(=O)Nc2ccnc(C(N)=O)c2)ccc(F)c1F` [Compound 113, 4-[[(2R,3S,4S,5S)-3-(3,4-difluoro-2-methoxy-phenyl)-5-isopropyl-4-methyl-tetrahydrofuran-2-carbonyl]amino]pyridine-2-carboxamide], 10 to 100 nM; with `COc1c([C@H]2[C@H](C(=O)Nc3ccnc(C(N)=O)c3)O[C@@](C)(C(F)F)[C@H]2C)ccc(F)c1F` (stereo in doubt) [Compound 99, rel-(2R,3S,4S,5R)-4-[[3-(3,4-difluoro-2-methoxy-phenyl)-5-(difluoromethyl)-4,5-dimethyl-tetrahydrofuran-2-carbonyl]amino]pyridine-2-carboxamide], greater than 1000 nM.
For `COc1c([C@H]2[C@H](C(=O)Nc3ccnc(C(N)=O)c3)O[C@@](C)(C(F)(F)F)[C@H]2C)cccc1C(F)(F)F` (single isomer, unassigned) [compound 42], the IC50 under setting [2] is less than 10 nM.
Compound `[2H]c1cc([C@H]2[C@H](C(=O)Nc3ccnc(C(N)=O)c3)O[C@@](C)(C(F)(F)F)[C@H]2C)c(OC)c(F)c1F` [Compound 148, 4-[[(2R,3S,4S,5R)-3-(5-deuterio-3,4-difluoro-2-methoxy-phenyl)-4,5-dimethyl-5-(trifluoromethyl)tetrahydrofuran-2-carbonyl]amino]pyridine-2-carboxamide] showed a concentration for half-maximal inhibition (IC50) under setting [3] of less than 10 nM.
For the compound `CNC(=O)c1cc(NC(=O)[C@H]2O[C@](C)(C(F)(F)F)C[C@@H]2c2ccc(F)c(Cl)c2OC)ccn1` (single isomer, unassigned) [Compound 58], the concentration for half-maximal inhibition (IC50) under setting [1] was greater than 1000 nM.
On the same count and under the same terms, with `COc1cccc(F)c1[C@@H]1C[C@](C)(C(F)(F)F)O[C@H]1C(=O)Nc1ccnc(C(N)=O)c1` (racemic) [Compound 79, rac-(2R,3S,5R)-4-[[3-(2-fluoro-6-methoxy-phenyl)-5-methyl-5-(trifluoromethyl)tetrahydrofuran-2-carbonyl]amino]pyridine-2-carboxamide] the figure was greater than 1000 nM; with `CNC(=O)c1cc(NC(=O)[C@@H]2O[C@](C)(C(F)(F)F)[C@@H](C)[C@H]2c2ccc(F)c(F)c2OC(F)F)ccn1` (stereo in doubt) [Compound 12, rel-(2R,3S,4S,5S)-4-[[3-[2-(difluoromethoxy)-3,4-difluoro-phenyl]-4,5-dimethyl-5-(trifluoromethyl)tetrahydrofuran-2-carbonyl]amino]-N-methyl-pyridine-2-carboxamide], greater than 1000 nM.
Regarding `COc1c([C@H]2[C@H](C(=O)Nc3cc(C(N)=O)ccn3)O[C@@](C)(C(F)(F)F)[C@H]2C)ccc(F)c1F` [Compound 120, 2-[[(2R,3S,4S,5R)-3-(3,4-difluoro-2-methoxy-phenyl)-4,5-dimethyl-5-(trifluoromethyl)tetrahydrofuran-2-carbonyl]amino]pyridine-4-carboxamide], the IC50 under setting [2] lay within 10 to 100 nM.
In the case of `COc1c([C@H]2[C@H](C(=O)Nc3ccnc(C(N)=O)c3)O[C@@](C)(C(F)(F)F)[C@H]2C)ccc(F)c1F` [Compound 7, (2R,3S,4S,5R)-4-[[3-(3,4-difluoro-2-methoxy-phenyl)-4,5-dimethyl-5-(trifluoromethyl)tetrahydrofuran-2-carbonyl]amino]pyridine-2-carboxamide], the IC50 (in the Presence of Human Serum in the E-VIPR Assay) was less than 10 nM.
For the compound `COc1cc(F)ccc1[C@H]1[C@H](C(=O)Nc2ccnc(C(N)=O)c2)O[C@@](C)(C(F)(F)F)[C@H]1C` (single isomer, unassigned) [Compound 3a], the IC50 under setting [1] is greater than 1000 nM.
Still for that read-out and setting: with `COc1cc(F)ccc1[C@H]1C[C@@](C)(C(F)(F)F)O[C@@H]1C(=O)Nc1ccnc(C(N)=O)c1` (stereo in doubt) [Compound 67, rel-(2S,3R,5S)-4-[[3-(4-fluoro-2-methoxy-phenyl)-5-methyl-5-(trifluoromethyl)tetrahydrofuran-2-carbonyl]amino]pyridine-2-carboxamide] the figure was greater than 1000 nM; with `C[C@@H]1[C@H](c2ccc(F)c(F)c2OC(F)F)[C@@H](C(=O)Nc2cccc(C(N)=O)c2)O[C@]1(C)C(F)(F)F` (single isomer, unassigned) [compound 51], greater than 1000 nM; with `COc1c([C@H]2C[C@@](C)(C(F)(F)F)O[C@@H]2C(=O)Nc2ccnc(C(N)=O)c2)ccc(F)c1Cl` (relative stereo) [Compound 22, rel-(2R,3S,5R)-4-[[3-(3-chloro-4-fluoro-2-methoxy-phenyl)-5-methyl-5-(trifluoromethyl)tetrahydrofuran-2-carbonyl]amino]pyridine-2-carboxamide], 10 to 100 nM.
As to `COc1c([C@@H]2[C@@H](C)C(C)(C)O[C@H]2C(=O)Nc2ccnc(C(N)=O)c2)ccc(F)c1F` (single isomer, unassigned) [Compound 102], the IC50 under setting [1] is greater than 1000 nM.
On the same count and under the same terms, with `CC[C@@]1(C(F)(F)F)C[C@H](c2ccc(F)c(F)c2OC)[C@@H](C(=O)Nc2ccnc(C(N)=O)c2)O1` (stereo in doubt) [Compound 63, rel-(2S,3R,5S)-4-[[3-(3,4-difluoro-2-methoxy-phenyl)-5-ethyl-5-(trifluoromethyl)tetrahydrofuran-2-carbonyl]amino]pyridine-2-carboxamide] the figure was greater than 1000 nM; with `COc1c([C@@H]2C[C@H](C(C)(C)C)O[C@H]2C(=O)Nc2ccnc(C(N)=O)c2)ccc(F)c1F` (single isomer, unassigned) [Compound 66], 100 to 1000 nM.
As to `[2H]c1cnc(C(N)=O)cc1NC(=O)[C@@H]1O[C@@](C)(C(F)(F)F)[C@@H](C)[C@H]1c1ccc(F)c(F)c1OC` [Compound 124, 5-deuterio-4-[[(2R,3S,4S,5R)-3-(3,4-difluoro-2-methoxy-phenyl)-4,5-dimethyl-5-(trifluoromethyl)tetrahydrofuran-2-carbonyl]amino]pyridine-2-carboxamide], the half-maximal inhibitory concentration (IC50) under setting [3] was less than 10 nM.

One may read the IC50 as the concentration needed to halve the response being measured.
